Entries after “also recorded” stand apart in the source; their conditions may differ.
Tests used:
Ly6C^high monocytes = experiment: Monocytes migration assay (transwell, CCL-2); format: cell-based, mouse; conditions: 1 h pre-treatment, CCL-2 50 ng/ml, 3 h
Text: FIGS. 4a-m. B4GALT6 regulates ccl2 transcriptional activity in astrocytes. (a) Murine ccl2 promoter. (b) Luciferase activity in 293T cells transfected with the ccl2 luciferase reporter plus one of the following constructs encoding IRF-1, p65 or an empty control vector (Empty). Results are relative to secreted alkaline phosphatase activity, presented as fold induction from empty vector. Data from three independent experiments, statistical analysis by Student's t-test. (c) ChIP analysis of the interaction of NF-κB, and IRF-1 with the ccl2 promoter in primary cultured astrocytes, pre-treated with PDMP and LacCer and activated with LPS/IFNγ (as in FIG. 3), 2 hours following LPS/IFNγ induction. (d-h) Recruitment of inflammatory monocytes (defined either as of CD11b^+ Ly6C^high or CD11b^+CD45^high cells) to the CNS of EAE NOD mice treated with PDMP or vehicle, as in (FIG. 1k), analyzed by flow cytometry and presented as cell frequency (e, g) and total cell numbers (f, h). Representative data of three independent experiments. […] (i) The frequency and number of CD11b^+ Ly6C^high monocytes as determined in the CNS 10 days after the i.c.v. injection of astrocytes-specific shRNA lentivirus as in (FIG. 3j). […] (j) monocytes were pre-treated for 1 h with PDMP, LacCer, both (LacCer+PDMP), or vehicle, and monocytes chemotaxis was measured using a transwell chamber system. […]

NF-κB (P65) = experiment: NF-κB translocation to the nucleus in astrocytes (western blot); format: cell-based, mouse; conditions: LPS/IFNγ; for translocation of NF-κB to the nucleus: cultured astrocytes
Procedure: FIGS. 14a-g. B4GALT6 directly controls astrocyte activation. (a) Cultured astrocytes were pre-treated for 1 h with PDMP (25 μM), LacCer (10 μM), both (LacCer+PDMP), or vehicle control (vehicle), followed by activation with LPS/IFNγ for 6 h, or left un-treated (control, Con). mRNA expression was analyzed 6 h following activation. qPCR analysis of the expression of cc/5, csf2, nos2, il6, H2-Aa, and tlr2 presented relative to gapdh. Statistical analysis by one-way ANOVA, followed by Tukey post-hoc analysis. (b, c) Cultured astrocytes were pre-treated for 1 h with LacCer (b) or PDMP (c), at indicated concentrations, followed by activation with LPS/IFNγ, or left un-treated (control, Con). Cell viability was determined 6 h after activation. […] Working concentrations (as in a) are marked in red. (d) The expression of B4galt6 (shB4galt6) or non-targeting shRNA (ShControl) in primary astrocytes was knocked-down using verified shRNA. Astrocytes were then pre-treated for 1 h with PDMP, or vehicle control (vehicle), followed by activation with LPS/IFNγ for 6 h, or left un-treated (control, Con). mRNA expression for H2-Aa, Ccl5 and Cxcl10 was determined; expression is presented as fold induction relative to housekeeping gene (Gapdh). Statistical analysis by one-way ANOVA, followed by Tukey post-hoc analysis (n≥3). […] (f) NF-κB (P65), GAPDH, and Lamin B expression, in cytoplasmic and nuclear fractions analyzed by western blot. The degree of NF-κB translocation to the nucleus was assessed by the ratio between the expression of P65 in nuclear and cytoplasmic fractions following densitometric quantification on four independent experiments (Right panel). […] (g) Expression of CCL-2 or iNOS in IRF-1^+ GFAP^+ astrocytes determined by IF during chronic EAE. […]
Astrocytes were treated as indicated, and total extracts (30 μg of protein), or the nuclear and cytoplasmic subcellular fractionations of cells, were separated by NuPAGE 10% Bis-Tris Gel (Invitrogen), and electroblotted onto supported nitrocellulose membrane. […] Data quantification was done using Image Studio software (Version 3.1.4) (LI-COR, Inc.)

Compound	monocyte migration in a CCL-2 gradient (Ly6C^high monocytes)	translocation of NF-κB to the nucleus (NF-κB (P65))	NF-κB translocation, LacCer added to PDMP (NF-κB (P65); LacCer + PDMP)
CCCCCCCCCC(=O)N[C@H](CN1CCOCC1)[C@H](O)c1ccccc1 [PDMP, D-threo-1-phenyl-2-decanoylamino-3-morpholino-1-propanol]	did not affect; also recorded: no significance effect	decreased translocation of NF-κB to the nucleus	–
lactosylceramide [LacCer]	did not affect; also recorded: no significance effect	triggered NF-M3 activation	abrogated the inhibition induced by PDMP
